In patent publication US20230293517A1, “ANTAGONIST COMPOUNDS” (AdoRx Therapeutics Limited, priority 2020, published 2023):

What was measured:
[1] = test system: immature monocyte-derived dendritic cells (MoDC); test: MoDC pCREB assay; type: cell-based, human; details: Homo sapiens, Dendritic cell; pCREB in immature MoDC, 1 μM NECA, rolipram
Method in brief: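 Human CD14+ monocytes differentiated 5 days into immature MoDC, pre-incubated 15 min at 37 °C with antagonist plus rolipram, then stimulated with 1 μM NECA for 45 min at 37 °C. Phospho-CREB measured by flow cytometry in gated CD209+/CD86− low cells; IC50 from the inflection point of a sigmoidal curve.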

[2] = target: human Adenosine A2a receptor (Homo sapiens (Human), UniProt P29274); test: Adenosine receptor TR-FRET binding assay (A2a); details: inhibition of binding of 100 nM CA200645, CHO cell membranes
Method in brief: (§1)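 CHO cell membranes carrying terbium-tagged human A1, A2a, A2b or A3 receptors were incubated 2 h at room temperature with compound and CA200645 tracer (A2b 30 nM; others 100 nM). Specific binding from time-resolved FRET ratios, minus 10 μM XAC background; IC50 converted to Ki (Cheng–Prusoff).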

[3] = target: human Adenosine A2b receptor (Homo sapiens (Human), UniProt P29275); test: Adenosine receptor TR-FRET binding assay (A2b); details: TR-FRET, inhibition of binding of 30 nM CA200645, CHO cell membranes
Method in brief: as §1

[4] = target: human Adenosine A3 receptor (Homo sapiens (Human), UniProt P0DMS8); test: Adenosine receptor TR-FRET binding assay (A3); details: inhibition of binding of 100 nM CA200645, CHO cell membranes
Method in brief: as §1

human PBMCs = test: CD3/CD28 stimulated IL-2 release NECA reversal assay in human PBMCs; type: cell-based; details: PBMC, 1 uM NECA, 24 hours, IL-2 in culture supernatant
Method in brief: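 PBMCs from citrated healthy-donor blood plated at 50,000 cells/well on 1 ug/ml CD3 antibody with 1 ug/ml CD28 antibody, 1 uM NECA and 0.003-10 μM antagonist (final), 24 h at 37° C. Supernatant IL-2 measured by MSD immunoassay; % inhibition set against no-NECA control wells as 100%.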

[5] = target: human Adenosine A1 receptor (Homo sapiens (Human), UniProt P30542); test: Adenosine receptor TR-FRET binding assay (A1); details: inhibition of binding of 100 nM CA200645, CHO cell membranes
Method in brief: as §1

[6] = test system: CD8+T cells in human whole blood; test: Measurement of pCREB in CD8+T cells in human whole blood; type: cell-based; details: 3 μM NECA, rolipram
Method in brief: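 Heparinised human whole blood pre-incubated 20 min at 37 °C with serially diluted A2a antagonists plus rolipram, then stimulated 60 min with 3 μM NECA (final). After fixation and red-cell lysis, white cells were permeabilized and stained for phospho-CREB and CD8; pCREB in CD8+ T cells measured by flow cytometry.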

Chain of human Adenosine A2a receptor (P29274 whole entry): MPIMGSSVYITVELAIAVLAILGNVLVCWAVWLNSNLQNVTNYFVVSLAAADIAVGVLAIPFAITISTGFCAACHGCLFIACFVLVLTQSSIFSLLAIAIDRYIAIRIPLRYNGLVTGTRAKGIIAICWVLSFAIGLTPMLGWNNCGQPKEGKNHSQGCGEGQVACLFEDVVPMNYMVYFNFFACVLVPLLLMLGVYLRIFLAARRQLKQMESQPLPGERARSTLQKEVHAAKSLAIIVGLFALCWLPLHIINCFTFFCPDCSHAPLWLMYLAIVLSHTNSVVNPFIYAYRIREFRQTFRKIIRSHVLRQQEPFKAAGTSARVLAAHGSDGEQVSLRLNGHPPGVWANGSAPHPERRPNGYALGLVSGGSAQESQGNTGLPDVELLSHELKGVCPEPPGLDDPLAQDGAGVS
Chain of human Adenosine A1 receptor (P30542 whole entry): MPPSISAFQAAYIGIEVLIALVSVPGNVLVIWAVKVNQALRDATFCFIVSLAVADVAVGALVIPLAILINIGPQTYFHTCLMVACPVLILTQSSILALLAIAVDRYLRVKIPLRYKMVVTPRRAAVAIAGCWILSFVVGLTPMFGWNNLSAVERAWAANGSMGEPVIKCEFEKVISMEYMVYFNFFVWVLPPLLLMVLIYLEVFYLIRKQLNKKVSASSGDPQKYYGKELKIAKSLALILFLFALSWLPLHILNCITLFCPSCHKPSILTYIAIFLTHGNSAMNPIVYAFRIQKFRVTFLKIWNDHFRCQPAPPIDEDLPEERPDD
Chain of human Adenosine A2b receptor (P29275 whole entry): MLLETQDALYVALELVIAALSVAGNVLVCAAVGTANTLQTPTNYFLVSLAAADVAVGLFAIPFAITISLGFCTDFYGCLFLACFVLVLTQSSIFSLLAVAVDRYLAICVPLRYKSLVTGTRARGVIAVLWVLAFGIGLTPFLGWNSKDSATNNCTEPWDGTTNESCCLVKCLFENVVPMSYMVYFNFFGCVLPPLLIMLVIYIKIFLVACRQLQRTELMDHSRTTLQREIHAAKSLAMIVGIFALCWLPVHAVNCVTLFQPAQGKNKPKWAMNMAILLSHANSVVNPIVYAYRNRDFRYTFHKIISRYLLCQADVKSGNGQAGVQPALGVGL
Chain of human Adenosine A3 receptor (P0DMS8 whole entry): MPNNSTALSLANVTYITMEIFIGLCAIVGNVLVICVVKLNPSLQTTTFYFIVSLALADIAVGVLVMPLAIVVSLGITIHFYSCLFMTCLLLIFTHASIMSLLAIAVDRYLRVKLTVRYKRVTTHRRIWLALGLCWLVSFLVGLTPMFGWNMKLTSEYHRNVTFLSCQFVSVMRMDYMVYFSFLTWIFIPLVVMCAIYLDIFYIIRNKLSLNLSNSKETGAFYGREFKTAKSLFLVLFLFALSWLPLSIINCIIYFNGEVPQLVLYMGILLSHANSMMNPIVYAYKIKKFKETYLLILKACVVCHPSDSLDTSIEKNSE

IC50 [1]: 9 nM
Ki [2]: 0.09 nM
Ki [3]: 1 nM
Ki [4]: 381 nM
Ki [5]: 30 nM
IC50 [6]: 60 nM
Compound: [2H]C([2H])([2H])c1cc(-c2sc(NC(=O)N3CCC(C)(C#N)CC3)nc2-c2cccc(C#N)c2)cc(C([2H])([2H])[2H])n1 [Example 28, N-[5-[2,6-Bis(trideuteriomethyl)-4-pyridyl]-4-(3-cyanophenyl)thiazol-2-yl]-4-cyano-4-methyl-piperidine-1-carboxamide]
IC50 (human PBMCs): 0.4 nM
